# Measured values from patent US20200237700A1, “METHODS OF REDUCING OR PREVENTING OXIDATION OF SMALL DENSE LDL OR MEMBRANE POLYUNSATURATED FATTY ACIDS” (Amarin Pharmaceuticals Ireland Limited, priority 2015, published 2020).
# Tests used:
# human sdLDL [1] = experiment: Copper-induced sdLDL oxidation, TBARS (Example 7); format: biochemical; conditions: for effect on sdLDL oxidation as compared to vehicle-treated controls: 10 μM, 1 hour
# Experimental: (§1) An experiment to study the antioxidant effect of EPA in LDL and small dense […] performed. […] Fenofibrate, gemfibrozil, and niacin were purchased from Sigma-Aldrich. […] Vitamin E was also incubated with sample aliquots as a positive control.
# [2] = test system: human LDL (unfractionated); experiment: Copper-induced unfractionated LDL oxidation, TBARS 1 hr (Example 7); format: biochemical; conditions: 10 μM
# Experimental: as §1
# [3] = Small angle x-ray diffraction of cholesterol-enriched POPC model membranes, cholesterol domain peak intensity (Example 9); format: physicochemical; conditions: drug-to-phospholipid mole ratio 1:30
# Experimental: The fatty acid stock solutions were stored at −20° C. until use. […] Samples were shell-dried under nitrogen gas and placed under vacuum for 3 hours to remove residual solvent at room temperature. After desiccation, each sample was resuspended in saline buffer (0.5 mM HEPES, 154 mM NaCl, pH 7.3) to yield a final phospholipid concentration of 2.5 mg/mL. Lipid suspensions were then vortexed for 3 minutes at ambient temperature to form MLVs. Membrane lipid vesicles were oriented for x-ray diffraction analysis as described by others (e.g., Herbette et al., Biophys. […] Briefly, a 100 μL aliquot of each MLV preparation (containing 250 μg MLV) was transferred to a Lucite® sedimentation cell fitted with an aluminum foil substrate designed to collect MLVs into a single membrane pellet upon centrifugation. […] After centrifugal orientation, sample supernatants were aspirated and aluminum foil substrates, each supporting a single membrane pellet, were removed from the sedimentation cells. Sample pellets were dried for 5-10 minutes at ambient conditions, mounted onto curved glass supports, and placed in hermetically-sealed, brass or glass containers (for immediate analysis or temporary storage, respectively). All x-ray diffraction experiments were conducted at 20° C., 74% relative humidity. The latter was established by exposing membrane samples to saturated solutions of L-(+)-tartaric acid (K2C4H4O6.½H2O) for at least 1 hour prior to experimental analysis. Oriented membrane samples were aligned at grazing incidence with respect to a collimated, mono-chromatic CuKα x-ray beam (Kα1 and Kα2 unresolved; λ=1.54 Å) produced by a Rigaku Rotaflex RU-200, high-brilliance microfocus generator (Rigaku-MSC, The Woodlands, Tex.) as previously described (Mason et al., Biophys. J., vol. 55(4), pages 769-778 (1989)). The samples were initially subjected to x-ray diffraction analysis at least 12 hours after formation of the membrane pellets and retested for up to several days. […] Collimation of the x-ray beam was achieved using a single Franks mirror. Diffraction data were collected on a one-dimensional, position-sensitive electron detector (Hecus X-ray Systems, Graz, Austria) at a sample-to-detector distance of 150 mm from the sample site. […] Routines written in Origin 8.6 (OriginLab Corporation, Northampton, Mass.) were used to determine total peak area (associated with all diffraction peaks in a given pattern) against which the second-order cholesterol domain peak was normalized. […] Differences between groups were analyzed using the two-tailed, Student's t-test (for comparisons between only two groups) or ANOVA followed by Dunnett or Student-Newman-Keuls multiple comparisons post-hoc analysis (for comparisons between three or more groups). […]
# [4] = test system: sdLDL isolated from human subjects under hyperglycemia; experiment: Glucose-induced sdLDL oxidation, TBARS/MDA (Example 10); format: biochemical; conditions: glucose 200 mg/dL; for glucose-induced sdLDL oxidation: 10.0 μM
# Experimental: Vitamin E (α-tocopherol) purchased from Sigma-Aldrich was prepared in ethanol at 1.0 mM (c=3.06×10^4 M^−1 cm^−1 at 294 nm) prior to experimental use. Test compounds were further diluted in ethanol or aqueous buffer as needed. Phosphate Buffered Saline (PBS) purchased from Sigma-Aldrich was prepared in double distilled water at 10 mM (138 mM NaCl, 2.7 mM KCl, pH 7.4). […] Lipid oxidation was measured by the colorimetric detection of malondialdehyde (MDA), a marker of oxidative stress. Data were presented as mean±SD for (n) separate samples or experiments. Differences between groups were analyzed using the unpaired, two-tailed Student's t-test (for comparisons between only two groups) or ANOVA followed by Student-Newman-Keuls multiple comparisons post hoc analysis (for comparisons between three or more groups).
# [5] = Glucose-induced membrane lipid peroxidation (LOOH) in multilamellar vesicles, CHOD-iodide assay (Example 4); format: biochemical
# Experimental: Vitamin E (α-tocopherol) was also purchased from Sigma-Aldrich and prepared in ethanol at 1.0 mM (ε=3.06×10^4 M^−1 cm^−1 at 294 nm) just prior to experimental use. […] All test compounds were further diluted in ethanol or aqueous buffer as needed. Glucose was prepared in saline buffer (0.5 mM HEPES, 154 mM NaCl, pH 7.3) at 11.0 mM (200 mg/dL). CHOD-iodide color reagent (stock) was prepared, with slight modification, as described by from El-Saadani et al. (J. […] Samples were shell-dried under nitrogen gas and placed under vacuum for 1 h to remove residual solvent. […] Lipid suspensions were then vortexed for 3 min at ambient temperature to form MLVs. All MLV samples were subjected to time-dependent autoxidation by incubating at 37° C. in an uncovered, shaking water bath. This method allows lipid peroxidation to occur gradually without requiring the use of exogenous initiators. Small aliquots (5-100 μL) of each sample were removed, immediately following MLV preparation (0 hour) and after exposing samples to oxidative conditions for 72 or 96 hour, and combined with 1.0 mL of activated CHOD-iodide color reagent. Aliquot volume was reduced with each successive time point to ensure that spectrophotometric readings were within the optimal adsorption range. Test samples were covered and incubated in darkness at room temperature for at least 4 hr. Sample absorbances were then measured against a CHOD blank at 365 nm using a Beckman DU-640 spectrophotometer. The CHOD colorimetric assay is based on the oxidation of iodide (I^−) by lipid hydroperoxide (LOOH) to form triiodide (I3^−), the quantity of which is directly proportional to the amount of LOOH present in the lipid sample. The molar absorptivity (E) of I3^− is 2.46×10^4 M^−1 cm^−1 at 365 nm. […] The concentration of glucose selected was consistent with previous experimental studies of hyperglycemia under controlled laboratory conditions or observed in well-defined animal models of Type II diabetes following a glucose challenge. […] Values in FIG. 1 are mean±S.D. (N=6). EPA inhibited the peroxidative effects of glucose by 88% and 86% at 72 and 96 hours, respectively, which was highly significant (p<0.001) as compared to glucose treatment alone. […] Overall ANOVA-0 hour data: p=0.6655, F=0.4185; 72 hour data: p<0.0001, F=428.72; 96 hour data: p<0.0001, F=322.01.
# [6] = test system: sdLDL from plasma of healthy volunteers; experiment: Time-dependent sdLDL oxidation, MDA formation over 4 hours (Example 13); format: biochemical, human; conditions: entire experimental time course (4 hours)
# Experimental: sdLDL was isolated from the plasma of healthy volunteers by iodixanol density gradient centrifugation and adjusted to a final apolipoprotein concentration of 2 mg/mL. Sample aliquots (100 μg apolipoprotein) were incubated with EPA, DHA, or EPA+DHA (each at 10 μM) for 30 minutes at 37° C. and then treated with 10 μM CuSO4 to initiate lipid oxidation. sdLDL oxidation was measured spectrophotometrically as a function of malondialdehyde (MDA) formation at various intervals over 4 hours. Vitamin E was also tested as a positive control. Experiments were conducted in triplicate and reported as mean±SD.
# human sdLDL [7] = experiment: Copper-induced sdLDL oxidation, TBARS after 2 hr (Example 6); format: biochemical
# Experimental: An experiment to study the antioxidant effect of EPA in small dense […] performed. […] Vitamin E (α-tocopherol) was purchased from Sigma-Aldrich and prepared in ethanol at 1.0 mM (ε=3.06×10^4 M^-1 cm^-1 at 294 nm) just prior to experimental use. All test compounds were further diluted in ethanol or aqueous buffer as needed. Venous blood was collected from healthy volunteers into vacutainer tubes containing sodium EDTA. Plasma was separated by centrifugation at 3000 g for 25 min at 4° C. and adjusted to a density of 1.020 g/mL with KBr. Triglyceride-rich lipoproteins (TGRL) and LDL fractions were then isolated by sequential centrifugation at 70,000 rpm at 4° C. in a Beckman LE-80 ultracentrifuge using a Beckman 50.4Ti rotor (Beckman Coulter, Inc., Fullerton, Calif.). The TGRL fraction (with a relative density of <1.020) was aspirated from the top of the centrifugate and discarded, leaving an LDL-enriched […] relative density of 1.020 to 1.063). […] The sdLDL subfraction was retained for additional experimentation. Plasma and lipoprotein fractions were maintained at 4° C. and protected from excessive exposure to light. Prior to oxidation experiments, EDTA was removed from the lipoprotein fraction using PD-10 desalting columns (GE Healthcare, Piscataway N.J.). After equilibration of the column with phosphate buffered saline (PBS), 2.5 mL of the lipoprotein fraction was loaded on the column and the flow-through discarded. The lipoprotein was then eluted with 3 mL of PBS. The LDL fractions were further diluted with PBS to obtain a 100 μg/mL apoB100 concentration. […] Data are presented as mean±S.D. for (N) separate samples or treatment groups. Differences between groups were analyzed using the two-tailed, Student's t-test (for comparisons between only two groups) or ANOVA followed by Dunnett or Student-Newman-Keuls multiple comparisons post-hoc analysis (for comparisons between three or more groups).
# [8] = Small angle x-ray diffraction of glucose-treated model membranes, cholesterol domain peak intensity (Example 4); format: physicochemical; conditions: any experimental time point; 1:30 drug-to-phospholipid; glucose 200 mg/dL
# Experimental: After centrifugal orientation, sample supernatants were aspirated and aluminum foil substrates, each supporting a single membrane pellet, were removed from the sedimentation cells. […] All x-ray diffraction experiments were conducted at 20° C., 74% relative humidity.
# Oriented membrane samples were aligned at grazing incidence with respect to a collimated, mono-chromatic CuKα x-ray beam (Kα1 and Kα2 unresolved; λ=1.54 Å) produced by a Rigaku Rotaflex RU-200, high-brilliance microfocus generator (Rigaku-MSC, The Woodlands, Tex.) as previously described (Mason et al., Biophys. J., vol. 55(4), pages 769-778 (1989)).
# Routines written in Origin 8.6 (OriginLab Corporation, Northampton, Mass.) were used to determine total peak area (associated with all diffraction peaks in a given pattern) against which the second-order cholesterol domain peak was normalized.
# [9] = test system: unfractionated LDL isolated from human plasma; experiment: Copper-induced oxidation of unfractionated LDL, TBARS (Example 6); format: biochemical; conditions: 1.0 μM to 10.0 μM; data not shown
# Experimental: All test compounds were further diluted in ethanol or aqueous buffer as needed. Venous blood was collected from healthy volunteers into vacutainer tubes containing sodium EDTA. […] Plasma and lipoprotein fractions were maintained at 4° C. and protected from excessive exposure to light. Prior to oxidation experiments, EDTA was removed from the lipoprotein fraction using PD-10 desalting columns (GE Healthcare, Piscataway N.J.). After equilibration of the column with phosphate buffered saline (PBS), 2.5 mL of the lipoprotein fraction was loaded on the column and the flow-through discarded. The lipoprotein was then eluted with 3 mL of PBS. The LDL fractions were further diluted with PBS to obtain a 100 μg/mL apoB100 concentration. […] Differences between groups were analyzed using the two-tailed, Student's t-test (for comparisons between only two groups) or ANOVA followed by Dunnett or Student-Newman-Keuls multiple comparisons post-hoc analysis (for comparisons between three or more groups).
smiles,measurement,setting,value
Cc1ccc(C)c(OCCCC(C)(C)C(=O)O)c1 [gemfibrozil],effect on sdLDL oxidation as compared to vehicle-treated controls,human sdLDL [1],no significant effect
same,effect on unfractionated LDL oxidation as compared to vehicle-treated controls,[2],no significant effect
same,effect on cholesterol domains / domain size,[3],no significant changes in cholesterol domain size
same,glucose-induced sdLDL oxidation,[4],did not inhibit glucose-induced sdLDL oxidation
"CC(C)c1c(C(=O)Nc2ccccc2O)c(-c2ccccc2)c(-c2ccc(F)cc2)n1CC[C@@H](O)C[C@@H](O)CC(=O)O [ATM, Atorvastatin ortho- (o-) hydroxy (active) metabolite]",inhibition of sdLDL oxidation vs vehicle,"human sdLDL [1]; ATM 0.5 μM, alone or in combination with EPA 1.0 μM, 1 hr",5±5%
same,inhibition of sdLDL oxidation vs vehicle,"human sdLDL [1]; each agent at 1.0 μM, 1 hr",18±5%
same,antioxidant effects of separate treatments (LOOH formation),"[5]; each at 1.0 μM, glucose 200 mg/dL, 96 hours",potent antioxidant effects
CC(C)c1c(C(=O)Nc2ccccc2)c(-c2ccccc2)c(-c2ccc(F)cc2)n1CC[C@@H](O)C[C@@H](O)CC(=O)O [atorvastatin],effect on sdLDL oxidation as compared to vehicle-treated controls,human sdLDL [1],did not have any significant antioxidant activity
same,inhibited TBARS formation / sdLDL oxidation vs vehicle,"human sdLDL [1]; each agent at 10 μM, 1 hr",0.1±7%
same,effect on unfractionated LDL oxidation as compared to vehicle-treated controls,[2],did not have any significant antioxidant activity
"Cc1c(C)c2c(c(C)c1O)CC[C@@](C)(CCC[C@H](C)CCC[C@H](C)CCCC(C)C)O2 [vitamin E, α-tocopherol]",effect on sdLDL oxidation as compared to vehicle-treated controls,human sdLDL [1],no significant effect
same,antioxidant effect on sdLDL oxidation,[6],no significant antioxidant effect
same,effect on LOOH formation / lipid peroxidation,"[5]; 72- and 96-hour time points, 1:30 drug-to-phospholipid mole ratio, glucose",no significant effect
same,effect on unfractionated LDL oxidation as compared to vehicle-treated controls,[2],no significant effect
same,reduced TBARS levels compared to vehicle-treated controls,"human sdLDL [7]; 10.0 μM, 10 μM CuSO4",26%
same,sdLDL oxidation,human sdLDL [7]; concentrations below the highest (10.0 μM),did not inhibit sdLDL oxidation
same,effect on cholesterol domain formation as compared to control,[8],no significant effect
same,glucose-induced sdLDL oxidation,[4],failed to inhibit sdLDL oxidation
same,increased sdLDL oxidation as compared to glucose-treated controls,[4],63%
same,LDL oxidation,[9],did not inhibit LDL oxidation at any concentration
